From patent publication US20230151434A1, “REAWAKENING OF DORMANT TUMOR CELLS BY MODIFIED LIPIDS DERIVED FROM STRESS ACTIVATED NEUTROPHILS” (The Wistar Institute of Anatomy and Biology, priority 2020, published 2023)
Like-named read-outs stand apart in the source and are kept apart here.

How the values were obtained:
KPr^p53A cells = assay: In vitro co-culture of dormant tumor cells with PMN (count of GFP+ cells); format: cell-based, mouse; conditions: for reactivation/proliferation of KPr^p53A cells cultured with PMN plus supplement: supplement added with PMN, LPS 0.5 to 2 μg/ml
Procedure: (§1) The KPr cell line (16) was maintained in RPMI 1640 medium (Corning) and 10% FBS (Gibco). Treatment of KPr cells with 250 nM 4-hydroxytamoxifen (4-OHT, Sigma-Aldrich) induced p53 expression. p53-induced cells (KPr^p53) were stained with CellTrace dye for 20 min at 37° C. according to the manufacturer's instructions (Life Technologies) and seeded at 8500 cells/cm^2 in culture in a T175 tissue culture-treated flask (Gibco). After 7 days, cells were detached and sorted based on the CellTrace dye intensity as proliferating (KPr^p53P, with lower CellTrace) and arrested cells (KPr^p53A, with higher-intensity CellTrace; see FIG. 1A for representative image). LL2 cells were seeded at 1000 cells/cm2 and treated for 3 days with 2.5 μM cisplatin (Selleckchem). After that, cells were stained with CellTrace and sorted as described above. OVCAR3 cell senescence was induced by treating 5×10^4 cells/cm2 with 0.5 μM cisplatin for 72 hours. After that time, cells were stained with CellTrace and sorted. A549 senescence was induced by 72-hour treatment with 4 μM cisplatin and cells were sorted after staining with CellTrace. Time points for sorting were chosen as the best to observe separation between arrested and proliferating cells. Cells were sorted on Astrios (Beckman Coulter) or Melody (Becton Dickinson) fluorescence-activated cell sorters.
(§2) Arrested tumor cells were plated at 100 cells/cm^2 in a 48-well tissue culture-treated plate (Costar) for coculture experiments. After 24 hours, PMN-MDSC or PMN were added at indicated ratios. Cocultures were maintained for 48 hours in RPMI 1640+10% FBS in the presence of mouse recombinant GM-CSF (10 ng/ml; Rocky Hill) to ensure neutrophil viability. All control conditions were in the presence of media with GM-CSF. All indicated supplements (NE, S100A8/A9, BGJ398, ICI 118-551, IL-2, MPO inhibitor, LPS, lipids, PMA, and thapsigargin 1 μM) were added to culture at the same time as PMN and maintained for 48 hours. After that, media were removed and replaced by fresh media without GM-CSF. After 1 week, GFP^+ cells in wells were counted via an inverted microscope. When lipid extracts were used, lipids were added to dormant cells in culture at 1 to 0.05 or 0.01 nmol as indicated in each experiment.

PMN = assay: S100A8/A9 release by PMN measured by ELISA; format: cell-based, mouse
Procedure: PMN or PMN-MDSC were isolated from spleen of tumor-free mice or LLC tumor-bearing mice, respectively. A total of 5×10^5 LLC cells were injected into the right flank of mice, and spleens were harvested when tumors reached 200 mm^2. Spleens were mechanically dissociated. Red blood cells were lysed with ACK buffer cells. Splenocytes were stained with mouse biotin-conjugated Ly6G antibody (Miltenyi Biotec) followed by biotin microbeads. Ly6G+ cells were purified by magnetic separation with MACS column for magnetic cell isolation, according to the manufacturer's instructions (Miltenyi Biotec).
One hundred microliters of mouse peripheral blood was collected from facial vein. NE was measured by a mouse NE ELISA Kit (Novus Biologicals). S100A8/A9 was measured by Mouse S100A8/S100A9 Heterodimer DuoSet ELISA (R&D Systems). S100A8/A9 concentrations in human serum samples were determined by using a double-sandwich ELISA system as previously described (64), which is different from commercial ELISA kits. Human NE was measured using an ELISA kit (Abnova).

[1] = test system: A549^cisA and OVCAR3^cisA cells; assay: In vitro co-culture of chemotherapy-arrested human tumor cells with human PMN; format: cell-based; conditions: A549^cisA, OVCAR3^cisA
Procedure: as §1, §2

[2] = PMN treated with stress hormones or LPS

Molecule | reactivation/proliferation of KPr^p53A cells cultured with PMN plus supplement (KPr^p53A cells) | other results
CCCCCCCCCCCCCC(=O)O[C@@H]1[C@@H](C)[C@@]2(O)[C@@H](C=C(CO)C[C@]3(O)C(=O)C(C)=C[C@@H]23)[C@@H]2C(C)(C)[C@]12OC(C)=O [PMA, phorbol 12-myristate 13-acetate] | did not induce their ability to reactivate dormant KPr^p53A cells | –
C[C@]12CCC(=O)C=C1CC[C@@H]1[C@@H]2[C@@H](O)C[C@@]2(C)[C@H]1CC[C@]2(O)C(=O)CO [cortisol] | – | S100A8/A9 release by PMN (PMN; [2]): caused rapid release of S100A8/A9 proteins
CNC[C@H](O)c1ccc(O)c(O)c1 [epinephrine] | – | S100A8/A9 release by PMN (PMN): caused rapid release of S100A8/A9 proteins
NCCc1c[nH]c2ccc(O)cc12 [serotonin] | – | S100A8/A9 release by PMN (PMN; [2]): caused rapid release of S100A8/A9 proteins
C/C=C(/C)C(=O)O[C@H]1C(C)=C2[C@H]([C@@H]1OC(=O)CCCCCCC)[C@@](C)(OC(C)=O)C[C@H](OC(=O)CCC)[C@@]1(O)[C@H]2OC(=O)[C@@]1(C)O [thapsigargin] | did not induce their ability to reactivate dormant KPr^p53A cells | –
IL-6: proinflammatory cytokine | did not induce their ability to reactivate dormant KPr^p53A cells | –
PE (18:0p/20:4) [Untreated PE] | – | proliferation of KPr^p53A cells cultured with lipids (KPr^p53A cells; lipids added to dormant cells, no PMN): did not activate proliferation of KPr^p53A cells
TNF a | did not induce their ability to reactivate dormant KPr^p53A cells | –
human S100A8/A9: human recombinant S100A8/A9 (protein, UniProt P05109 1-93; P06702 1-114, looked up) Protein S100-A8: MLTELEKALNSIIDVYHKYSLIKGNFHAVYRDDLKKLLETECPQYIRKKGADVWFKELDINTDGAVNFQEFLILVIKMGVAAHKKSHEESHKE Protein S100-A9: MTCKMSQLERNIETIINTFHQYSVKLGHPDTLNQGEFKELVRKDLQNFLKKENKNEKVIEHIMEDLDTNADKQLSFEEFIMLMARLTWASHEKMHEGDEGPGHHHKPGLGEGTP | – | reactivation of arrested human tumor cells cultured with human PMN plus supplement [1]: reactivation of A549^cisA and OVCAR3^cisA cells
IL-10: proinflammatory cytokine as printed (protein, UniProt P22301 19-178, looked up) Interleukin-10: SPGQGTQSENSCTHFPGNLPNMLRDLRDAFSRVKTFFQMKDQLDNLLLKESLLEDFKGYLGCQALSEMIQFYLEEVMPQAENQDPDIKAHVNSLGENLKTLRLRLRRCHRFLPCENKSKAVEQVKNAFNKLQEKGIYKAMSEFDIFINYIEAYMTMKIRN | did not induce their ability to reactivate dormant KPr^p53A cells | –
